Experimental data taken from ChEMBL document CHEMBL1201862, “PubChem BioAssay data set” (2004).
Activity calls are given as the source filed them.

Tests used:
HEK293 [1] = test: cells; assay type: functional, cell-based; conditions: Homo sapiens
HEK293 [2] = test: NOD2 signaling inhibitors in MDP-stimulated cells, cell-based, uHTS, luminescence (AID 2001); assay type: functional; conditions: Homo sapiens
[3] = target: Nucleotide-binding oligomerization domain-containing protein 2 (Homo sapiens, UniProt Q9HC29); test: NOD2 signaling inhibitors, cell-based, luminescence, uHTS, HEK293 (AID 1566); assay type: functional
HEK293 [4] = test: NOD1 signaling inhibitors, primary screen, cell-based, luminescence, uHTS (AID 1578); assay type: functional; conditions: Homo sapiens
HEK293 [5] = test: cells; assay type: functional, cell-based; conditions: Homo sapiens; remark: listed apart in the source
HEK293 [6] = test: cells; assay type: functional, cell-based; conditions: Homo sapiens; remark: listed apart in the source
[7] = cytotoxicity toward DRD oncogenic fibroblasts, dose response, cell-based, non-viral oncogenic, luminescence (AID 1934); assay type: functional; conditions: Homo sapiens
BJ [8] = test: cytotoxicity toward Ras-transformed BJeLR fibroblasts, dose response, cell-based, alamar blue fluorescence, cherrypicked samples (AID 2631); assay type: functional; conditions: Homo sapiens;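 further: confirmatory dose-response assay in RAS-dependent BJ fibroblasts engineered with TERT, LT and ST, with cytotoxicity read by fluorescence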
BJ [9] = test: cytotoxicity toward BJ-TERT fibroblasts, dose response, cell-based, RAS-independent, luminescence (AID 1933); assay type: functional; conditions: Homo sapiens
[10] = Luminescence Cell-Based Dose Retest to Confirm Inhibitors of Cancer Stem Cells. [Related pubchem assays (depositor defined):AID2717, AID2721]; assay type: functional; conditions: Homo sapiens
BJ [11] = test: cells; assay type: functional, cell-based; conditions: Homo sapiens
BJ [12] = test: cytotoxicity toward BJ-TERT-LT-ST fibroblasts, dose response, cell-based, RAS-independent, luminescence (AID 1935); assay type: functional; conditions: Homo sapiens;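 further: BJ fibroblasts immortalized with TERT plus LT and ST oncogenes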
Estrogen receptor beta [13] = target: T1, Estrogen receptor beta (Homo sapiens, UniProt Q92731);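 further: recombinant ER-beta bound to coactivator SRC1 peptide in presence of estradiol agonist; inhibitors block coactivator peptide binding and lower the FRET signal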
Estrogen receptor beta [14] = target: T1, Estrogen receptor beta; test: ERβ–SRC-3 coactivator interaction inhibitors, confirmation, orthogonal assay, biochemical, ELISA, streptavidin-HRP readout (AID 1060)
[15] = microbe, parasite or virus in culture; assay type: functional; conditions: Mycobacterium tuberculosis
[16] = target: T2, Ubiquitin-conjugating enzyme E2 N (Homo sapiens, UniProt P61088); assay type: functional;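 further: Dose-response confirmation in a TR-FRET assay detecting UBC13-driven polyubiquitin chain formation, inhibition measured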
T2 sequence (P61088 whole entry): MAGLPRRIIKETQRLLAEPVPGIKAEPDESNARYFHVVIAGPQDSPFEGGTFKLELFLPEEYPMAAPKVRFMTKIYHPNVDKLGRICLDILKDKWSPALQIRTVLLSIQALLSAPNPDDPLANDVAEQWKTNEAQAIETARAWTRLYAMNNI

[17] = ZM109 Env clade C HIV-1 fusion inhibitors, dose response, HeLa effector, CEM target cells, luciferase, cherry-pick (AID 652058); assay type: functional, cell-based
[18] = inhibitors of HIV Env-driven cell fusion, dose response, cherry-pick (AID 652057); assay type: functional, cell-based
[19] = off-target signal loss in HeLa-CEM21 co-culture – HeLa F-luc CTL cells, cherry-picked, counter-screen for HIV-1 Env fusion inhibitor project, dose response (AID 652040); assay type: functional, cell-based;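 further: potency for signal decrease marking cytotoxic or nonspecific inhibition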
[20] = inhibitors of clade B AD8 Env fusion, dose response, cell-based, cherry-pick (AID 652062); assay type: functional;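 further: luciferase signal from cell-cell fusion driven by HIV-1 clade B AD8 Env; potency is for inhibitors of fusion seen as a drop in luminescence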
Paired box protein Pax-8 = Paired box protein Pax-8 (Homo sapiens, UniProt Q06710); test: inhibitors of PAX8-driven TPO luciferase reporter, dose response, RMG-I cells, cherry-pick (AID 687027); assay type: functional, cell-based;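 further: luciferase reporter driven by Pax8 target thyroperoxidase promoter measured by SteadyGlo luminescence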
[21] = cytotoxicity in OVCAR8 ovarian cancer cells, dose response, PAX8 project, cell-based, plate reader, dry powder samples (AID 743197); assay type: functional; conditions: OVCAR-8
[22] = target: Luciferin 4-monooxygenase (Photinus pyralis, UniProt P08659); test: firefly luciferase enzyme inhibitors, dose response, biochemical, luminescence (AID 1891)
[23] = Luminescence Cell-Based Dose Confirmation HTS to Identify Inhibitors of Platelet Dense Granule Release. [Related pubchem assays: 1663 (Primary HTS), 1678 (Summary of Project)]; assay type: functional
P388 = test: cells; assay type: functional; conditions: Mus musculus
SN12K1 = test: cells; assay type: functional; conditions: Homo sapiens
P388/ADR = test: cells; assay type: functional; conditions: Mus musculus
H4 = test: Luminescence Cell-Based Dose Response HTS to Identify Activators of 5'UTR Stem-Loop Driven Prion Protein mRNA Translation in H4 Neuroglioblastoma Cells. [Related pubchem assays: 1829 (Project Summary), 1814 (Primary HTS)]; assay type: functional; conditions: Homo sapiens

T1 sequence (Q92731 whole entry): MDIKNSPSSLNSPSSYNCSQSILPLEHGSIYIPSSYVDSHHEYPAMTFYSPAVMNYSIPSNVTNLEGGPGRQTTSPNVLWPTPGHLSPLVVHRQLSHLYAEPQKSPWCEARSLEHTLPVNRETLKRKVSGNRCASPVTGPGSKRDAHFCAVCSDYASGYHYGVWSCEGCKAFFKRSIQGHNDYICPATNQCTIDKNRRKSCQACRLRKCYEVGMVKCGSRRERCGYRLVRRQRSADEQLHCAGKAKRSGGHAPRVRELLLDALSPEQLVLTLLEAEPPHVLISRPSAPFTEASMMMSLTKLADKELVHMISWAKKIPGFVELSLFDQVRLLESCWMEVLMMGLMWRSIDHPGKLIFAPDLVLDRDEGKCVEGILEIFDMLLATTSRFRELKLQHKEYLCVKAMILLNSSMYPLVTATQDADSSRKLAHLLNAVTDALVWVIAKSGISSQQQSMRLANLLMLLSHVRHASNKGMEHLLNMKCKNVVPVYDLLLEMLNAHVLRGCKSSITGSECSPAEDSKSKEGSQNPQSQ
Paired box protein Pax-8, sequence (Q06710 whole entry): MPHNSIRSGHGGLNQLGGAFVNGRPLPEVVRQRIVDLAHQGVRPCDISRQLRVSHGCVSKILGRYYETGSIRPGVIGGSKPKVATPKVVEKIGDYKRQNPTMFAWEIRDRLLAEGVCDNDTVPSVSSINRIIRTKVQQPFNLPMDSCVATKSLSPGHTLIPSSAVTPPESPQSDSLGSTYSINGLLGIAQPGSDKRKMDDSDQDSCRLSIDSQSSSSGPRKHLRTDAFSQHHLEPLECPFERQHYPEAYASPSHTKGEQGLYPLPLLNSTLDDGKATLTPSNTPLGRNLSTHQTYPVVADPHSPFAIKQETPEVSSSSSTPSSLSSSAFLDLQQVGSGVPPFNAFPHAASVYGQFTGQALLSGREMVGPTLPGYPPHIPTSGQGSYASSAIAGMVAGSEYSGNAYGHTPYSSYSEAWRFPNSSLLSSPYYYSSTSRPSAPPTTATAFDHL
Nucleotide-binding oligomerization domain-containing protein 2, sequence (Q9HC29 whole entry, the tested form may be a part): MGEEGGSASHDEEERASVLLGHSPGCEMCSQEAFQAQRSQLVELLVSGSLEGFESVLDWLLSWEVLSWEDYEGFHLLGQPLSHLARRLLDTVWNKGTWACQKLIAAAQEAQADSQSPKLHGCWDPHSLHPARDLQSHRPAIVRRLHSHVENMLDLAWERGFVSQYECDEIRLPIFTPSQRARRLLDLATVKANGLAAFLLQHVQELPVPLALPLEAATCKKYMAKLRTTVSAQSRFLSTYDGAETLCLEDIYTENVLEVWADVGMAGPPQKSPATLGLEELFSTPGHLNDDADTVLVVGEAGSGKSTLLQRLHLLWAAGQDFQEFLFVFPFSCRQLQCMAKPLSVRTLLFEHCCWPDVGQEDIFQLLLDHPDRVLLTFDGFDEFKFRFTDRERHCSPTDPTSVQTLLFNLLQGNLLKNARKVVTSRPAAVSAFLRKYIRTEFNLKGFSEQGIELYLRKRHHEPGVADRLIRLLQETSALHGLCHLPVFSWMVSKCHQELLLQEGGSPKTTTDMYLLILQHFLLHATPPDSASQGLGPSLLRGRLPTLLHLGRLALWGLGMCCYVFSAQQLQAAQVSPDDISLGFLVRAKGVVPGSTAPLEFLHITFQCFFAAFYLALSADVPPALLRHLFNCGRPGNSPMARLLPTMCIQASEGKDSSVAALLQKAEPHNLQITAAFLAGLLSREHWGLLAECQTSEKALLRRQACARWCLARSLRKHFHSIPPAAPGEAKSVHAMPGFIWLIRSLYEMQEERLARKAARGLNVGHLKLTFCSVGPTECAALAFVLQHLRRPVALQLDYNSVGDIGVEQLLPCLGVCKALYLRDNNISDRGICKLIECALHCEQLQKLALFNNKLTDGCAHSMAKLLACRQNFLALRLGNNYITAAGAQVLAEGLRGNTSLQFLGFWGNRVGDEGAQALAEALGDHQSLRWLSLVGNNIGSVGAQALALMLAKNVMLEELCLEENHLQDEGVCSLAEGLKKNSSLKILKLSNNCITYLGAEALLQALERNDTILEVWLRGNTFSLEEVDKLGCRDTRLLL
Luciferin 4-monooxygenase, sequence (P08659 whole entry): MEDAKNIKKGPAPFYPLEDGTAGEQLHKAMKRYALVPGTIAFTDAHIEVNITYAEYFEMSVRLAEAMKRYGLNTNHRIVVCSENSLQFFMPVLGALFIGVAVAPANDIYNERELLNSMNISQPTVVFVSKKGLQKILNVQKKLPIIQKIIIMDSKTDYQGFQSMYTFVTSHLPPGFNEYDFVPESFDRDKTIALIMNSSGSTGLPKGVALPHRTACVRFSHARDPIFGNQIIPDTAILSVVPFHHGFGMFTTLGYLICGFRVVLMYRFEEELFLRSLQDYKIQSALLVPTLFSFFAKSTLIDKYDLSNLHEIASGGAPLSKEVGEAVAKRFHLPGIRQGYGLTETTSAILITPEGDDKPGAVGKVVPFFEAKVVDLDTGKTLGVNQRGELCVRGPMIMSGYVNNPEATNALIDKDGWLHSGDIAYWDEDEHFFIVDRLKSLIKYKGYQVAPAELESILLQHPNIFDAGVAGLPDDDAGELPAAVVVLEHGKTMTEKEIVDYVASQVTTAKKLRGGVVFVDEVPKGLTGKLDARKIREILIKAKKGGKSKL

O=C(COc1ccc(Cl)cc1)Nc1nc(-c2ccc(S(=O)(=O)N3CCOCC3)cc2)cs1
IC50 (HEK293 [1]): > 20 µM (inactive) | IC50 (HEK293 [2]): 4.96 µM (active) | EC50 [3]: 17 µM (active) | EC50 (HEK293 [4]): 10.3 µM (active) | IC50 (HEK293 [5]): > 20 µM (inactive) | IC50 (HEK293 [6]): 3.9 µM (active)

Cn1cnc(Sc2[nH]cnc3ncnc2-3)c1[N+](=O)[O-]
EC50 [7]: 13 µM (active) | EC50 (BJ [8]): > 133 µM (inactive) | EC50 (BJ [9]): > 150 µM (not active) | AC50 [10]: 1.42 µM (active) | EC50 (BJ [11]): 8.4 µM (active) | EC50 (BJ [12]): > 150 µM (not active)

COc1ccc(NS(=O)(=O)c2ccc3c(c2)Cc2ccccc2-3)cn1
IC50 (HEK293 [2]): 8.27 µM (active) | EC50 (HEK293 [4]): 5.22 µM (active) | IC50 (HEK293 [5]): > 20 µM (inactive) | IC50 (HEK293 [6]): 9.79 µM (active)

O=C(Nc1ccc2c(c1)OCO2)c1cccc2c1C(=O)N(Cc1cccnc1)C2
IC50 (Estrogen receptor beta [13]): > 50 µM (not active) | IC50 (Estrogen receptor beta [14]): 3.13 µM (not active)

CCc1ccc(-c2cc(C)no2)cc1S(=O)(=O)NCCCN1CCN(c2ccccc2)CC1
CC50 [15]: 30.9 µM (active) | IC50 (HEK293 [2]): 4.26 µM (active) | EC50 (HEK293 [4]): 6.88 µM (active) | IC50 (HEK293 [5]): 7.44 µM (active) | IC50 (HEK293 [6]): 4.42 µM (active)

CC1CCCC(C)N1CCCNC(=O)C1CCCN(c2ncnc3c2nc2n3CCCCC2)C1 (stereo unspecified)
IC50 [16]: > 20 µM (inactive)

CC(C)CN(C(=O)c1ccc(S(=O)(=O)N2CCCCC2)cc1)C1CCS(=O)(=O)C1 (stereo unspecified)
AC50 [17]: 6.21 µM (active)

C=C1CCN([C@@H](Cc2ccccc2)C(=O)NCCC(C)C)S(=O)(=O)c2ccccc21
AC50 [18]: 3.91 µM (active) | AC50 [17]: 3.56 µM (active) | AC50 [19]: 6.85 µM (active) | AC50 [20]: 24.1 µM (active)

C[C@@H]1CCCCO[C@@H](CN(C)C(=O)Nc2ccc(C(F)(F)F)cc2)[C@H](C)CN([C@H](C)CO)C(=O)c2cc(NS(=O)(=O)c3ccccc3)ccc2O1
AC50 (Paired box protein Pax-8): 6.96 µM (active) | AC50 [21]: > 70 µM (inactive)

Cc1ccc(Cc2cncc(O)c2)cc1S(=O)(=O)O
IC50 (Estrogen receptor beta [13]): 13.5 µM (active) | IC50 (Estrogen receptor beta [14]): 0.353 µM (not active)

COc1ccc2nc(NC(=O)c3ccoc3C)sc2c1
EC50 (BJ [8]): > 133 µM (inactive) | EC50 [22]: 0.263 µM (active) | EC50 [23]: 0.468 µM (active)

Nc1ncn([C@H]2C[C@H](O)[C@@H](CO)O2)c(=O)n1 [DECITABINE]
GI50 (P388): 0.051 µM (active) | GI50 (SN12K1): > 375 µM (inactive) | AC50 [19]: > 70 µM (inactive) | GI50 (P388/ADR): 0.0959 µM (active) | EC50 (H4): 94.9 µM (active)
